Results: the supplement of paper PMC11208160

Assay: recombinant UMI read abundance after kanamycin selection (control-corrected) (log10(CPM+1)); higher = more efficient recombination; extreme values may be limits of the assay; sequences stand for … in AGTGCAGAGAAAATCGGCCAGTTTTCTCTGCCTGCAGTCCGCATGCCGTGGGACCCCTTGGGTTCTAACCTGTTGCCTAGATTTATGCAGCGGACTGCCTTTCTCCCAAAGTGATAAACCGG…AGGTTGGTTTCACT; site = the 11-nt donor
Method in brief: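 Two replicates each of selected and unselected plating were used in this pooled Escherichia coli screen of donor and donor-binding-loop pairs for the IS621 bridge recombinase. Selection was with IPTG (0.07 mM) and kanamycin. Counts of recombinant UMIs, amplified across the donor–target junction, were converted to CPM, averaged, scaled by control-derived factors and reported as log10(CPM+1).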
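Also: IS621 bridge recombinase in Escherichia coli cells against a fixed T5 target plasmid.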

Sequence	recombinant UMI read abundance (log10)
GACAAACCATGGACCGGTTTTCCCGGTAATCCGTATTTGGT (site GTCAAACCTAC)	0
GTAAAATCATGGACCGGTTTTCCCGGTAATCCGTATTTGCA (site GTAAAATCTTG)	1.81
CGATCATCATGGACCGGTTTTCCCGGTAATCCGTATTTGCT (site TGCTCATCTAG)	0
TACGGTACATGGACCGGTTTTCCCGGTAATCCGTATTTGGT (site TACGGTACTAC)	0.321
AGTAAGACATGGACCGGTTTTCCCGGTAATCCGTATTTGCC (site AGGAAGACTTG)	0.00684
AGCCTTGCATGGACCGGTTTTCCCGGTAATCCGTATTTGAC (site AGCCTTACTGT)	0
ACTGTAACATGGACCGGTTTTCCCGGTAATCCGTATTTGCT (site AGTGTAACTAG)	1.12
TCTATGACATGGACCGGTTTTCCCGGTAATCCGTATTTGTG (site TCTATGACTCA)	0.00894
TTCAATTCATGGACCGGTTTTCCCGGTAATCCGTATTTGCC (site TGCAATTCTGG)	0
CGTTGAGCATGGACCGGTTTTCCCGGTAATCCGTATTTGCG (site CGTTGAGCTCG)	1.2
GATGTTCCATGGACCGGTTTTCCCGGTAATCCGTATTTGGT (site GTTGTTCCTAC)	0.00388
CGTTAGACATGGACCGGTTTTCCCGGTAATCCGTATTTGAC (site CGTTAGACTTT)	0.0068
GTTAGAACATGGACCGGTTTTCCCGGTAATCCGTATTTGGT (site GTTAGAACTTC)	0.0194
CGTTGTCCATGGACCGGTTTTCCCGGTAATCCGTATTTGTA (site CGTTGTCCTTA)	0.0342
CGCCGTACATGGACCGGTTTTCCCGGTAATCCGTATTTGCT (site CGGCGTACTAG)	0.0034
CGCATTACATGGACCGGTTTTCCCGGTAATCCGTATTTGCA (site CGCATTACTTG)	1.64

Sequence	recombinant UMI read abundance (log10)
CGATCATCATGGACCGGTTTTCCCGGTAATCCGTATTTGCT (site CGAAGATCTAG)	0
CGGAATACATGGACCGGTTTTCCCGGTAATCCGTATTTGTT (site CGGAATGCTAA)	0
GACAAGCCATGGACCGGTTTTCCCGGTAATCCGTATTTGGT (site GACAACCCTAC)	0.00727
AACCGTCCATGGACCGGTTTTCCCGGTAATCCGTATTTGAT (site AATCGTCCTAT)	0.0138
CAAGTCACATGGACCGGTTTTCCCGGTAATCCGTATTTGTG (site CAAGTCACTCC)	0.0385
CCCCACACATGGACCGGTTTTCCCGGTAATCCGTATTTGTA (site CCCCATACTTA)	0.0127
CCGTAAGCATGGACCGGTTTTCCCGGTAATCCGTATTTGTG (site CCGTAAGCTCA)	0.404
GGTCCAACATGGACCGGTTTTCCCGGTAATCCGTATTTGTA (site GGTCCAACTCA)	0.0175
GGTATTACATGGACCGGTTTTCCCGGTAATCCGTATTTGAG (site GGTATTACTCT)	0
CGGGATCCATGGACCGGTTTTCCCGGTAATCCGTATTTGAT (site CGGGATCCTAT)	0.898
ACACAGCCATGGACCGGTTTTCCCGGTAATCCGTATTTGAC (site ACACACCCTGT)	1.68
CGATCATCATGGACCGGTTTTCCCGGTAATCCGTATTTGCT (site CGATCACCTAT)	0.0275
CGGTTCCCATGGACCGGTTTTCCCGGTAATCCGTATTTGTG (site CGGTTCCCTCA)	0.0387
GGTCCAACATGGACCGGTTTTCCCGGTAATCCGTATTTGTA (site GTTCCAACTTA)	0.0101
TGTTAACCATGGACCGGTTTTCCCGGTAATCCGTATTTGTC (site TGTTAACCTGA)	0
CCCTATTCATGGACCGGTTTTCCCGGTAATCCGTATTTGCT (site CCCTATTCTAG)	1.7
